From patent publication US9862711B2, “Pyrazine derivatives as phosphatidylinositol 3-kinase inhibitors” (NOVARTIS AG, priority 2014, dated 2018)
pIC50: −log10 of the molar value.

The compounds below were run against PI 3-kinase gamma (Homo sapiens (Human), UniProt P48736) (assay: TR-FRET Adapta assay (Assay E)). Settings: read-out: Assay E PI3Kγ IC50.
Assay type: biochemical
Description: TR-FRET Adapta Assay for PI 3-Kinase Gamma (E), PI 3-Kinase Delta (F)
The TR-FRET Adapta™ Universal Kinase Assay Kit was purchased from Invitrogen Corporation (Carlsbad/CA, USA) (Cat. No. PV5099). The kit contains the following reagents: Adapta Eu-anti-ADP Antibody (Europium labeled anti-ADP antibody in HEPES buffered saline, Cat. No. PV5097), Alexa Fluor® 647-labeled ADP tracer (Alexa Fluor® 647-labeled ADP tracer in HEPES buffered saline, Cat. No. PV5098), TR-FRET dilution buffer pH 7.5 (Cat. No. PV3574). PIK3CD substrate phosphatidylinositol (PI) was obtained from Invitrogen (vesicules consisting of 2 mM phosphatidylinositol (PI) in 50 mM HEPES pH7.5; Cat. No. PV5371). PIK3CG substrate phosphatidylinositol-4,5-bisphosphate (PIP(4,5)2 was obtained from Invitrogen (PIP2:PS large unilamellar vesicules consisting of 1 mM PIP2: 19 mM PS in 50 mM HEPES pH7.5, 3 mM MgCl2, 1 mM EGTA; Cat. No. PV5100).
Time-Resolved Fluorescence Resonance Energy Transfer (TR-FRET) is a technology based on energy transfer between two adjacent dyes, from an excited electron in one dye (the donor) to an electron of an adjacent dye (the acceptor) through resonance, then released as a photon. This energy transfer is detected by an increase in the fluorescence emission of the acceptor, and a decrease in the fluorescence emission of the donor. TR-FRET assays for protein kinases use a long-lifetime lanthanide Terbium or Europium chelates as the donor species which overcome interference from compound autofluorescence or light scatter from precipitated compounds, by introducing a delay after excitation by a flashlamp excitation source. Results are often expressed as a ratio of the intensities of the acceptor and donor fluorophores. The ratiometric nature of such a value corrects for differences in assay volumes between wells, as well as corrects for quenching effects due to colored compounds. The Adapta™ assay can be divided into two phases: a kinase reaction phase and an ADP detection phase. In the kinase reaction phase, all kinase reaction components are added to the well and the reaction is allowed to incubate for a set period of time specific for each kinase. After the reaction, a detection solution of Eu-labeled anti-ADP antibody, Alexa Fluor® 647-labeled ADP tracer, and EDTA (to stop the kinase reaction) are added to the assay well. ADP formed by the kinase reaction will displace the Alexa Fluor® 647-labeled ADP tracer from the antibody, resulting in a decrease in TR-FRET signal. In the presence of an inhibitor, the amount of ADP formed by the kinase reaction is reduced, and the resulting intact antibodytracer interaction maintains a high TR-FRET signal. In the Adapta™ assay, the donor (Europium-anti-ADP antibody) is excited at 340 nm and will transfer its energy to the acceptor (Alexa Fluor® 647-labeled ADP tracer). The emission from the Alexa Fluor® 647 can be monitored with a filter centered at 665 nm because it is located between the emission peaks of the donor, which is measured at 615/620 nm. 50 nL of compound dilutions were dispensed onto white 384-well small volume polystyrene plate. Then 5 μL of either PI 3-kinase gamma or PI 3-kinase delta and lipid substrate (P1 or PIP2:PS) followed by 5 μL of ATP (final assay volume 10 μL) are incubated at RT. The standard reaction buffer for the Adapta™ TR-FRET assay contained 10 mM Tris-HCl pH 7.5, 3 mM MgCl2, 50 mM NaCl, 1 mM DTT, 0.05% CHAPS ((3-[(3-cholamidopropyl)dimethylammonio]-1-propanesulfonate). Reactions were stopped with 5 μL of a mixture of EDTA containing the Eu-labeled anti-ADP antibody and the Alexa Fluor® 647-labeled ADP tracer in TR-FRET dilution buffer. Plates are read 15 to 60 mins later in a Synergy2 reader using an integration time of 0.4 seconds and a delay of 0.05 seconds. Control for the 100% inhibition of the kinase reaction was performed by replacing the PI 3-kinase by the standard reaction buffer. […]

Sequence of PI 3-kinase gamma (P48736 whole entry): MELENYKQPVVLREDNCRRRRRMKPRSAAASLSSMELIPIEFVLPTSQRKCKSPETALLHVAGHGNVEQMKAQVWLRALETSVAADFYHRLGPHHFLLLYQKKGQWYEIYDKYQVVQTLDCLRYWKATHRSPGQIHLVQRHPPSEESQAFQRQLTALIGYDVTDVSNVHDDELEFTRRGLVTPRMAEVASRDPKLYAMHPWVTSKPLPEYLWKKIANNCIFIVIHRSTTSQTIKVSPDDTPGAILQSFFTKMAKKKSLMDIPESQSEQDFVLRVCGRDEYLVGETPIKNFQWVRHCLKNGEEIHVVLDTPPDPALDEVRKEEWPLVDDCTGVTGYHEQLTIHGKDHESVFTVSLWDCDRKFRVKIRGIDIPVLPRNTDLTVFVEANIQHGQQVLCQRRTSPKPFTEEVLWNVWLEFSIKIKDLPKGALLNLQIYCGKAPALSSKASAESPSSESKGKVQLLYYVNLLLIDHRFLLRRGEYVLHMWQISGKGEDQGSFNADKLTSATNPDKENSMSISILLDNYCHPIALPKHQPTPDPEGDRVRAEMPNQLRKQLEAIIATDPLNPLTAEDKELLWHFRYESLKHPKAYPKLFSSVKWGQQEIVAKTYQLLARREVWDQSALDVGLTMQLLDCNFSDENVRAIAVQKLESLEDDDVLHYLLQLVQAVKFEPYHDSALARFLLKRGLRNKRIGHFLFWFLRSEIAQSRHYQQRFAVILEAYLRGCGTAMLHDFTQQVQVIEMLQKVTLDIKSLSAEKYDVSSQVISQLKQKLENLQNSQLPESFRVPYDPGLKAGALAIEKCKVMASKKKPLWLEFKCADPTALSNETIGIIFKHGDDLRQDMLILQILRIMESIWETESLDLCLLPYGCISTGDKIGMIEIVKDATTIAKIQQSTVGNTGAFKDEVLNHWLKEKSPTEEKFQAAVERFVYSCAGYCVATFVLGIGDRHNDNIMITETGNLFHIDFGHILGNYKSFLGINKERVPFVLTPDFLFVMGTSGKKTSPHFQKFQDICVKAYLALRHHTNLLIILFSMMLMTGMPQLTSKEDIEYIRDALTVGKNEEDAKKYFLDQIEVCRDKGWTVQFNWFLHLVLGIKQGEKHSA

pIC50	Compound
7.66	Cc1ncc(-c2cncc(-c3cc(S(=O)(=O)NCCCO)ccc3C)n2)s1 [Example 1, N-(3-Hydroxy-propyl)-4-methyl-3-[6-(2-methyl-thiazol-5-yl)-pyrazin-2-yl]-benzenesulfonamide]
7.72	Cc1ccc(S(=O)(=O)NCC(C)(C)O)cc1-c1cncc(-c2cn(C)nc2C)n1 [Example 2, 3-[6-(1,3-Dimethyl-1H-pyrazol-4-yl)-pyrazin-2-yl]-N-(2-hydroxy-2-methyl-propyl)-4-methyl-benzenesulfonamide]
7.32	Cc1ccc(S(=O)(=O)NCCC(C)(C)O)cc1-c1cncc(-c2cn(C)nc2C)n1 [Example 3, 3-[6-(1,3-Dimethyl-1H-pyrazol-4-yl)-pyrazin-2-yl]-N-(3-hydroxy-3-methyl-butyl)-4-methyl-benzenesulfonamide]
7.85	Cc1ccc(S(=O)(=O)NCC2(C)COC2)cc1-c1cncc(-c2cn(C)nc2C)n1 [Example 4, Trans 3-[6-(1,3-Dimethyl-1H-pyrazol-4-yl)-pyrazin-2-yl]-4-methyl-N-(3-methyl-oxetan-3-ylmethyl)-benzenesulfonamide]
7.82	Cc1ncc(-c2cncc(-c3cc(S(=O)(=O)N[C@H]4CC[C@H](O)CC4)ccc3C)n2)s1 [Example 5, Trans N-(4-Hydroxycyclohexyl)-4-methyl-3-(6-(2-methylthiazol-5-yl)pyrazin-2-yl)benzenesulfonamide]
7.70	Cc1ccc(S(=O)(=O)NCC(C)(C)CO)cc1-c1cncc(-c2cn(C)nc2C)n1 [Example 8, 3-[6-(1,3-Dimethyl-1H-pyrazol-4-yl)-pyrazin-2-yl]-N-(3-hydroxy-2,2-dimethyl-propyl)-4-methyl-benzenesulfonamide]
6.80	Cc1ccc(S(=O)(=O)NCCC(C)(C)O)cc1-c1cncc(-c2cnn(CCN3CCOCC3)c2)n1 [Example 9, N-(3-Hydroxy-3-methyl-butyl)-4-methyl-3-{6-[1-(2-morpholin-4-yl-ethyl)-1H-pyrazol-4-yl]-pyrazin-2-yl}-benzenesulfonamide]
7.57	Cc1ccc(S(=O)(=O)NCCC(C)(C)O)cc1-c1cncc(-c2cn(CCN3CCOCC3)nc2C)n1 [Example 10, N-(3-Hydroxy-3-methyl-butyl)-4-methyl-3-{6-[3-methyl-1-(2-morpholin-4-yl-ethyl)-1H-pyrazol-4-yl]-pyrazin-2-yl}-benzenesulfonamide]
7.06	Cc1ccc(S(=O)(=O)N[C@H]2CC[C@H](O)CC2)cc1-c1cncc(-c2cccnc2)n1 [Example 11, Trans N-(4-Hydroxy-cyclohexyl)-4-methyl-3-(6-pyridin-3-yl-pyrazin-2-yl)-benzenesulfonamide]
